Patent publication US6193954A, “Formulations for pulmonary delivery of dopamine agonists” (Abbott Laboratories, priority 1997, dated 2001)
Structures can show the parent of a compound that is named as a salt.

Key:
[1] = Bioavailability of MDI compositions in dogs, inhalation vs intravenous (plasma diol); assay type: in vivo, beagle dog; settings: dog
Excerpt: The aerosol sprays were delivered anteriorly via a tracheal stoma in each subject animal (beagle dog).

[2] = Intratracheal administration of liquid formulation to tracheotomized dogs; assay type: in vivo; settings: 0.1 mg/kg (approximately 0.5 ml), mannitol/water solution
Method: The viscosity of the administered solution was similar to water and the dose was squirted into the tube via pressure from a syringe filled with the liquid formulation. This formlation would not be administered through nasal or mouth means.
The solution used in the intratracheal administration contained the following:
Compound of example 1 6.9 mg/ml
with water for Injection as the solvent.
The above percentages may be varied by one of ordinary skill in the art to provide various dosages and/or ratios of the above excipients or compounds.

[3] = Dispersion quality of MDI formulations (visual suspension quality after 24 hours); assay type: physicochemical; settings: HFC-134a
Method: A determination of the dispersion quality of several MDI formulations prepared with HFA-134a was conducted as follows: Pluronic® L44 (BASF Corp., Parsippany, N.J.), drug and excipients being formulated were combined in the amounts shown in appropriate transparent aerosol containers (vials). The vials were crimped using a 100 μL Valois metered valve and charged with approximately 10 mL of HFC-134a. The container was shaken for about 30 minutes to blend the ingredients. The dispersion quality in each preparation was evaluated visually after 24 hours using the following criteria:
Poor: Phase separation; top phase clear, bottom phase containing solids
Fair: Partial phase separation; cloudiness in the top phase
Good: Grainy appearance; no phase separation
Excellent: Milky homogeneous appearance; no phase separation

CCCc1cc2c(s1)CN[C@@H]1CCc3cc(OC(C)=O)c(OC(C)=O)cc3[C@@H]21 [Compound of Example 1, (5aR-trans)-4,5,6,7,11b-hexahydro-2-propylbenzo[f]thieno[2,3-c]quinoline-9,10-diol, diacetate (ester) hydrochloride]
lung absorption following inhalation delivery vs I.V. administration ([1]; inhalation): occurs more efficiently than I.V. administration | absorption upon delivery to the lungs ([1]; suspended in HFC-134a): well absorbed upon delivery to the lungs | delivery on intratracheal administration [2]: effectively delivered | Suspension Quality ([3]; 20 mg drug, 0 Pluronic L44, 0 tocopherol acetate): good | Suspension Quality ([3]; 20 mg drug, 3 Pluronic L44, 0 tocopherol acetate): good | Suspension Quality ([3]; 20 mg drug, 3 Pluronic L44, 2 mg tocopherol acetate): good | Suspension Quality ([3]; 20 mg drug, 5 Pluronic L44, 0 tocopherol acetate): good | Suspension Quality ([3]; 20 mg drug, 5 Pluronic L44, 2 mg tocopherol acetate): good | Suspension Quality ([3]; 40 mg drug, 0 Pluronic L44, 0 tocopherol acetate): good | Suspension Quality ([3]; 40 mg drug, 3 Pluronic L44, 0 tocopherol acetate): good | Suspension Quality ([3]; 40 mg drug, 3 Pluronic L44, 2 mg tocopherol acetate): good | Suspension Quality ([3]; 40 mg drug, 5 Pluronic L44, 0 tocopherol acetate): good | Suspension Quality ([3]; 40 mg drug, 5 Pluronic L44, 2 mg tocopherol acetate): good
